We go through 4 compounds from patent US20230094227A1, “NOVEL FK506 DERIVATIVE AND COMPOSITION COMPRISING SAME FOR PROMOTING HAIR GROWTH” (SEOUL NATIONAL UNIVERSITY R&DB FOUNDATION, priority 2020, published 2023).

The test system of the test is CD4+ T cells. Briefly: in vitro T-cell activity assay (CD4+ T cell proliferation by CTV intensity, flow cytometry). The note with it: CD3/CD28-activated mouse spleen CD4+ T cells, 72 hours culture; for IC50: Mus musculus, CD4+ T, 72 h, read-out: Immunosuppression IC50. It is filed as cell-based, B6J mice. An excerpt: The degree of decrease in immunosuppressive activity of the four novel compounds was investigated by using the conventional in vitro T-cell activity assay (J. Immunol. 143: 718-726, 1989). The division of CD4+ T cells is an indicator that an immune response is taking place, and when CD4+ T cells are stained with Cell Trace™ Violet (CTV) and the cells divide according to the immune response and the T cells proliferate, a phenomenon in which the CTV retention of each cell decreases appears, and thus, the degree of immunosuppressive activity was investigated using this as an indicator.
Single cells were isolated from the spleen of 6 to 8 week-old B6J mice, and CD4+ T cells were isolated using the MagniSort® Mouse CD4 T cell Enrichment Kit (eBioscience). CD4+ T cells were stained with Cell Trace™ Violet (CTV) Cell Proliferation Kit (Molecular Probes), and FK506 or the four novel compounds were added to a concentration of 0.01 ng/mL, 0.1 ng/mL, 1 ng/mL, 10 ng/mL, 100 ng/mL or […], and then, it was cultured for 72 hours. Dynabeads® Mouse T-Activator CD3/CD28 (Gibco) was used for T cell activation. As a control group, non-activated T cells were used. After culture, CTV intensity was analyzed by flow cytometry.
In general terms: In flow cytometry, cells or beads pass a laser one at a time.

Broadly, the IC50 is the concentration at which inhibition is half-maximal.

Molecules are shown by their SMILES. Converted amounts (≈) assume the structure as drawn.

Consider `CCC[C@@H]1/C=C(\C)C[C@H](C)C[C@H](OC)[C@H]2O[C@@](O)(CC(=O)N3CCC[C@H]3C(=O)O[C@H](/C(C)=C/[C@@H]3CC[C@@H](O)[C@H](OC)C3)[C@H](C)[C@@H](O)CC1=O)[C@H](C)C[C@@H]2OC` [9-deoxo-36,37-dihydro-prolylFK506], for which the concentration for half-maximal inhibition (IC50) is 3.09 µg/mL (≈ 3.97 µM).
The same measure, in the same setting: in the case of `C=CC[C@@H]1/C=C(\C)C[C@H](C)C[C@H](OC)[C@H]2O[C@@](O)(C(=O)C(=O)N3CCCC[C@H]3C(=O)O[C@H](/C(C)=C/[C@@H]3CC[C@@H](O)[C@H](OC)C3)[C@H](C)[C@@H](O)CC1=O)[C@H](C)C[C@@H]2OC` [FK506] it was 2.7e-05 µg/mL (≈ 3.36e-05 µM).
Turning to `CCC[C@@H]1/C=C(\C)C[C@H](C)C[C@H](OC)[C@H]2O[C@@](O)(CC(=O)N3CCC[C@H]3C(=O)O[C@H](/C(C)=C/[C@@H]3CC[C@@H](O)[C@H](O)C3)[C@H](C)[C@@H](O)CC1=O)[C@H](C)C[C@@H]2OC` [9-deoxo-31-O-demethyl-36,37-dihydro-prolylFK506], the IC50 was found to be 5.56 µg/mL (≈ 7.27 µM).
For the compound `CC[C@@H]1/C=C(\C)C[C@H](C)C[C@H](OC)[C@H]2O[C@@](O)(CC(=O)N3CCC[C@H]3C(=O)O[C@H](/C(C)=C/[C@@H]3CC[C@@H](O)[C@H](O)C3)[C@H](C)[C@@H](O)CC1=O)[C@H](C)C[C@@H]2OC` [9-deoxo-prolylFK520], the “Immunosuppression IC50” value is 3.2888 µg/mL.
